Experiments:
[1] = tested on: FcεRI α- and γ-chains mRNA; test: FcεRI mRNA expression in human peripheral blood basophils (RT-PCR); type: cell-based; conditions: 25 µM of chrysin, 24 hours, vs DMSO
Method: Peripheral blood basophils (1×10^6 cells/mL) collected from the vein of a donor were incubated in a medium comprising 25 µM of chrysin or dimethyl sulfoxide (DMSO) for 24 hours. Then, RNA was extracted and the mRNA expression level of each of the FcεRI α- and γ-chains was examined by the RT-PCR method. Venous blood was collected from the forearm elbow of a donor. Then, peripheral blood lymphocytes were separated and purified using Lymphocyte Separation Medium (ICN Biomedical Inc.) and peripheral basophils were separated and purified by the density gradient centrifugation method using Percoll (Amersham Biosciences). The basophils (1×10^6 cells/mL) were incubated in 5% FCS-RPMI 1640 medium, to which 25 µM of chrysin or a solvent dimethylsulfoxide (DMSO) had been added, for 24 hours. RNA was extracted and the mRNA expression levels of FcεRI α- and γ-chains were examined by the RT-PCR method as in Example 1.

[2] = tested on: blood antibody level (IgM, IgG, IgA, IgE); test: Blood antibody level of mice antigen-sensitized with ovalbumin (OVA) after chrysin intake (ELISA); type: in vivo, mouse
Method: Male BALB/c mice aged 8 weeks were divided into an AIN-93M-fed group (a control group) and a chrysin-comprising AIN-93M-fed group. After feeding with the individual feeds for 3 weeks, both groups were fed with the AIN-93M feed for 2 weeks. Each feed was given at a ratio of 5 g/day/animal while the animals were allowed to take water ad libitum. OVA-sensitization was conducted by injecting 100 μg of OVA/aluminum hydroxide gel into the peritoneal cavity of each mouse 1 and 2 weeks after the initiation of the feed, i.e., twice in total. On day 35, blood samples were collected and the total IgM, IgG and IgE levels in the serum were measured by ELISA. Reagents employed in ELISA for quantifying the antibody were as follows. In blocking, use was made of PBS comprising 1% of bovine serum albumin (Roche) (BSA-PBS). As solid phase antibodies, use was made of F(ab′)2 goat anti-mouse IgG antibody (Zymed Laboratories, Inc.), F(ab′)2 rabbit anti-mouse IgM antibody (Zymed Laboratories, Inc.) and rabbit anti-mouse IgA (Zymed Laboratories, Inc.). As secondary antibodies, use was made of HRP-labeled F(ab′)2 goat anti-mouse IgG(H(L) antibody (Zymed Laboratories, Inc.), HRP-labeled rabbit anti-mouse IgM antibody (Zymed Laboratories, Inc.) and HRP-labeled goat anti-mouse IgA antibody (Zymed Laboratories, Inc.). 2,2′-Anizo-bis(3-ethylbenzothiazoline-6-sulfonic acid) diammonium salt (ABTS) employed as a color development substrate was purchased from Wako Pure Chemical Industries, while oxalic acid was purchased from Nacalai tesque (Kyoto, Japan). A solid phase antibody solution (diluted 1000-fold with a 50 mM carbonate buffer) was pipetted into an immunoplate at a ratio of 100 μL/well and allowed to stand overnight at 4° C. After washing thrice with PBS comprising 0.1% of polyoxyethylene sorbitan monolaurate (Nacalai tesque) (TPBS), 300 μL/well of BSA-PBS was pipetted and incubation was conducted for 2 hours at 37° C. After washing thrice with TPBS, a sample and a standard solution, which were optionally diluted with BSA-PBS, were added at a ratio of 50 μL/well and allowed to stand overnight at 4° C. After washing thrice with TPBS, 100 μL/well of a secondary antibody solution (diluted 2000-fold with BSA-PBS) was pipetted and incubation was conducted for 1 hour at 37° C. After washing thrice with TPBS, 100 μL/well of a color development substrate solution was pipetted and color development was carried out. Then, 100 μL/well of oxalic acid was pipetted to cease the reaction and the absorbance was measured at 415 to 490 nm. As the color development substrate solution, a mixture of a 0.006% H2O2— comprising 0.2 M citrate buffer (pH 4.0), deionized water and a 10.94 mM ABTS solution (10:9:1) was employed. In the case of IgE, the procedure indicated in the protocol attached to a mouse IgE assay kit (Morinaga Biochemistry Lab.) was followed. Absorbance was measured using Immuno Mini NJ-2300 (Nippon Intermed).

[3] = serum, day 35, BALB/c mice OVA-sensitized, chrysin-comprising feed 3 weeks

O=c1cc(-c2ccccc2)oc2cc(O)cc(O)c12 [Chrysin, 5,7-dihydroxyflavone]
FcεRI α-chain mRNA expression level [1]: strongly lowered | FcεRI γ-chain mRNA expression level [1]: lowered | blood IgE level compared with the control group ([2]; OVA-sensitized mice, in words): significantly lowered | effect of chrysin intake on blood IgM, IgG and IgA levels ([2]; OVA-sensitized mice, in words, vs control group): no effect | IgA [2, 3]: 0.6 ± 0.0 mg/mL | IgG [2, 3]: 23.5 ± 3.0 mg/mL | IgM [2, 3]: 5.4 ± 0.2 mg/mL

— US20080262080A1, “Allergy Suppressive Agent” (KYUSHU UNIVERSITY, NATIONAL UNIVERSITY CORPORATION, priority 2004, published 2008)
